Measurements published in US20060106064A1, “Butyrophenones and sigma-1 receptor antagonists protect against oxidative-stress” (University of North Texas Health Science Center at Fort …, priority 2004, published 2006).
“Also recorded” adds a separate entry of the source. Where two headings read alike, the source gives them in different places.

Assays:
human Sigma-1 receptor = target: T1, human Sigma-1 receptor (Homo sapiens, UniProt Q99720); assay: [3H]-(+)-pentazocine binding to MCF-7 cells stably expressing the cloned human Sigma-1 receptor; conditions: for affinity for the Sigma-1 receptor in words: FIG. 6
T1 construct: expressed in transfected cells

HT-22 cells = assay: in vitro protection assay, glutamate-induced oxidative stress HT-22 cell model (Calcein AM cell survival)
[1] = tested on: stroke (ICD-9 433, 434, 435)
[2] = tested on: ferric chloride-induced lipid peroxidation in rat brain membranes; assay: ferric chloride-induced lipid peroxidation in rat brain membranes (antioxidant activity); format: biochemical; conditions: even very high concentrations
Procedure: […]. Antioxidant activity was measured by the ability of compounds to prevent ferric chloride-induced lipid peroxidation in rat brain membranes. The antioxidant ZYC5 is a known antioxidant control. […]. In summary, in vitro protection against glutamate-induced oxidative stress in HT-22 cells is mediated by antagonism of Sigma-1 receptors.

[3] = tested on: tMCAO induced brain injury; assay: transient middle cerebral artery occlusion (tMCAO) ischemic stroke model, infarct volume by triphenyltetrazolium staining; format: in vivo, rat; conditions: 0.05 mg/kg acute, immediately after induction of 60 minute occlusion, ovariectomized female Sprague-Dawley rats, assessed 24 hrs after the stroke
NMDA receptors = conditions: cited from earlier work
[4] = Table 4, read-out: Affinity for the cloned Sigma-1 receptor (Ki ± SEM)
[5] = read-out: Potency (EC50 ± SEM nM), Table 4
[6] = Table 2, receptor target screen
[7] = read-out: Potency (EC50 ± SEM), Table 2, receptor target screen
[8] = Mus musculus, HT-22, read-out: Potency (EC50 ± SEM, nM)
[9] = protection against oxidative stress induced by 20 mM glutamate, Table 1
[10] = read-out: Potency (EC50 ± SEM), Table 5
[11] = patients with CABG in 1997, N = 11,444

T1 sequence (Q99720 whole entry): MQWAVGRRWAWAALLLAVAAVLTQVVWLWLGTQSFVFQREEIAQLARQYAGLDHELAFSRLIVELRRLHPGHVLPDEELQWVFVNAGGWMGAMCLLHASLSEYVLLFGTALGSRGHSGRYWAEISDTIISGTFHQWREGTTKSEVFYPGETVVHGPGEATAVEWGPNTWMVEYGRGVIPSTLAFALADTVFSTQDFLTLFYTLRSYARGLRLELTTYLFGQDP

Compound	in vitro protection in words (HT-22 cells; FIGS. 2, 3 and 6)	Efficacy ± SEM (HT-22 cells; Table 4)	Efficacy ± SEM (HT-22 cells; [6])	EC50 (HT-22 cells; [8])	Efficacy ± SEM (HT-22 cells; [9])	other results
OC1(c2ccc(Cl)c(C(F)(F)F)c2)CCN(CCCC(c2ccc(F)cc2)c2ccc(F)cc2)CC1 [Penfluridol, 1-[4,4-bis(4-fluorophenyl)butyl]-4-[4-chloro-3-(trifluoromethyl)phenyl]-piperidin-4-ol]	moderate protective potency	80 ± 20	–	–	–	affinity for the Sigma-1 receptor in words (human Sigma-1 receptor): moderate affinity; Ki (human Sigma-1 receptor; [4]): 53 ± 15 nM; EC50 (HT-22 cells; [5]): 350 ± 246 nM
Clc1ccc(N2CCN(Cc3c[nH]c4ncccc34)CC2)cc1 [L745870, 3-((4-(4-Chlorophenyl)piperazin-1-yl)-methyl)-1H-pyrrolo-2,3-b-pyridine]	–	–	–	–	–	Efficacy ± SEM (HT-22 cells): 50 ± 9.6; EC50 (HT-22 cells; read-out: In vitro Protective Potency (EC50 ± SEM)): 895 ± 736 nM; EC50 (HT-22 cells; read-out: Potency (EC50 ± SEM nM)): 895 ± 736 nM; EC50 (HT-22 cells; read-out: Potency (EC50 ± SEM)): 895 ± 736 nM
OC(CCCN1CCC(O)(c2ccc(Cl)cc2)CC1)c1ccc(F)cc1 (centres unmarked)	high potency protection	58 ± 5.6	–	–	–	affinity for the Sigma-1 receptor in words (human Sigma-1 receptor): high affinity; EC50 (HT-22 cells; [5]): 12.9 ± 12.2 nM
Cc1c(C2CCN(CCc3ccccc3)CC2)noc1-c1ccc(Cl)cc1 [L741742, 5-(4-Chlorophenyl)-4-methyl-3-(l-(2-phenylethyl)piperidin-4-yl)isoxazole]	–	61 ± 2.7	61 ± 2.7	–	–	Ki (human Sigma-1 receptor; [4]): 4.8 ± 0.41 nM; EC50 (HT-22 cells; read-out: In vitro Protective Potency (EC50 ± SEM), Table 3): 1.2 ± 0.82 nM; EC50 (HT-22 cells; [5]): 1.2 ± 0.82 nM; EC50 (HT-22 cells; [7]): 1.2 ± 0.82 nM
O=C(CCCN1CCC(O)(c2cccc(C(F)(F)F)c2)CC1)c1ccc(F)cc1 [Trifluperidol, 1-(4-fluorophenyl)-4-[4-hydroxy-4-[3-(trifluoromethyl)phenyl]-1-piperidyl]-butan-1-one]	–	–	–	7.5 ± 6.3 nM	–	affinity for the Sigma-1 receptor in words (human Sigma-1 receptor): high affinity; Efficacy ± SEM (HT-22 cells): 55 ± 3.0; in vitro protection in words (HT-22 cells): high potency protection
OCCN1CCN(CCCN2c3ccccc3Sc3ccc(C(F)(F)F)cc32)CC1 [Flupenazine]	–	–	–	–	0	EC50 (HT-22 cells; read-out: Potency (EC50 ± SEM), protection against oxidative stress induced by 20 mM glutamate, Table 1): > 1000 nM
OC1(c2ccc(Cl)cc2)CCN(Cc2c[nH]c3ccccc23)CC1 [L741626]	–	–	0	–	–	EC50 (HT-22 cells; [7]): > 1000 nM
O=C(CCCN1CC=C(n2c(=O)[nH]c3ccccc32)CC1)c1ccc(F)cc1 [Droperidol, 1-[1-[4-(4-fluorophenyl)-4-oxo-butyl]-3,6-dihydro-2H-pyridin-4-yl]-3H-benzoimidazol-2-one]	do not provide potent protection	100	–	5270 ± 2230 nM	–	–
O=C(CCCN1CCC(O)(c2ccc(Cl)cc2)CC1)c1ccc(Cl)cc1 [Chlorohaloperidol, 1-(4-chlorophenyl)-4-[4-(4-chlorophenyl)-4-hydroxy-1-piperidyl]-butan-1-one]	high potency protection	64 ± 3.4	–	4.3 ± 1.7 nM	–	Ki (human Sigma-1 receptor): 1.5 ± 0.36 nM; affinity for the Sigma-1 receptor in words (human Sigma-1 receptor): high affinity
CCC(Oc1ccc(Cl)cc1)C(=O)OC1CC2CCC(C1)N2C (centres unmarked) [SM-21]	no protective effect	–	0	–	–	EC50 (HT-22 cells; [7]): > 1000 nM; EC50 (HT-22 cells; [10]): > 1000 nM
CC(=O)CC(c1ccccc1)c1c(O)c2ccccc2oc1=O (centres unmarked) [Coumadin]	–	–	–	–	–	B (logistic regression coefficient for stroke) ([1]; full model N = 145,576): 1.018; Odds Ratio for stroke ([1]; full model N = 145,576): 2.769; times more likely to have a stroke during the year ([1]; general model): about 2.7 times; B (logistic regression coefficient for stroke) [1, 11]: 0.849; Odds Ratio for stroke [1, 11]: 2.337
O=C(CCCN1CCC(O)(c2ccc(Br)cc2)CC1)c1ccc(F)cc1 [Bromperidol, 4-[4-(4-bromophenyl)-4-hydroxy-1-piperidyl]-1-(4-fluorophenyl)-butan-1-one]	high potency protection	67 ± 9.8	–	0.95 ± 0.82 nM	–	affinity for the Sigma-1 receptor in words (human Sigma-1 receptor): high affinity; Ki (human Sigma-1 receptor; [4]): 1.2 ± 0.21 nM
CN1CCN2c3ncccc3Cc3ccccc3C2C1 (centres unmarked) [Mirtazapine]	–	–	0	> 1000 nM	–	–
CN1CCN(C2=Nc3cc(Cl)ccc3Nc3ccccc32)CC1 [Clozapine]	–	–	–	–	0	–
CN1CCN(C2=Nc3ccccc3Oc3ccc(Cl)cc32)CC1 [Loxapine]	–	–	–	> 1000 nM	0	–
CN1CCN(CCc2ccc(Cl)c(Cl)c2)CC1 [BD1063]	–	61 ± 7.5	61 ± 7.5	–	–	Ki (human Sigma-1 receptor; [4]): 3.1 ± 1.4 nM; Ki (human Sigma-1 receptor; Table 5, own value, read-out: Affinity for the Sigma-1 receptor (Ki)): 3.1 nM; Efficacy ± SEM (HT-22 cells; Table 5): 61 ± 7.5; EC50 (HT-22 cells; [5]): 5.9 ± 3.5 nM; EC50 (HT-22 cells; [7]): 5.9 ± 3.5 nM; EC50 (HT-22 cells; [10]): 5.9 ± 3.5 nM
OCCN1CCN(CCCN2c3ccccc3Sc3ccc(Cl)cc32)CC1 [Perphenazine]	–	–	–	> 1000 nM	0	–
O=C(CCCN1CCC(n2c(=O)[nH]c3ccccc32)CC1)c1ccc(F)cc1 [Benperidol, 1-[1-[4-(4-fluorophenyl)-4-oxo-butyl]-4-piperidyl]-3H-benzoimidazol-2-one]	do not provide potent protection	66 ± 23	–	1160 ± 498 nM	–	Ki (human Sigma-1 receptor): 252 ± 42 nM; affinity for the Sigma-1 receptor in words (human Sigma-1 receptor): nor do they have high affinity
O=C(CCCN1CCC(O)(c2ccc(Cl)cc2)CC1)c1ccc(F)cc1 [Haloperidol, 4-[4-(4-chlorophenyl)-4-hydroxy-1-piperidyl]-1-(4-fluorophenyl)-butan-1-one]	strong neuroprotection; also recorded: high potency protection	65 ± 2.5	–	–	65 ± 2.5	antioxidant activity (prevention of lipid peroxidation) [2]: failed to prevent ferric chloride-induced peroxidation of brain lipids; reduction in infarct volume [3]: 50%; B (logistic regression coefficient for stroke) ([1]; full model N = 145,576): −0.464; B (logistic regression coefficient for stroke) [1, 11]: −0.926; decrease of risk of stroke ([1]; patients with CABG surgery in 1997, significant only at the 0.07 level): about 60%; affinity of NMDA receptors for haloperidol (NMDA receptors): > 1 µM
CN(C)CC/C=C1/c2ccccc2Sc2ccc(Cl)cc21 [Chlorprothixene]	–	–	–	> 1000 nM	0	–
O=C(c1ccc(F)cc1)C1CCN(CCn2c(=O)[nH]c3ccccc3c2=O)CC1 [Ketanserin]	–	–	0	> 1000 nM	–	–
O=C(CCCN1CCC2(CC1)C(=O)NCN2c1ccccc1)c1ccc(F)cc1 [Spiperone, 8-[4-(4-fluorophenyl)-4-oxo-butyl]-1-phenyl-1,3,8-triazaspiro[4.5]decan-4-one]	do not provide potent protection	100	–	–	–	affinity for the Sigma-1 receptor in words (human Sigma-1 receptor): nor do they have high affinity; Ki (human Sigma-1 receptor; [4]): 1050 ± 334 nM
O=C(OCCN1CCOCC1)C1(c2ccccc2)CCCCC1 [PRE-084]	–	–	0	–	–	EC50 (HT-22 cells; [7]): > 1000 nM; EC50 (HT-22 cells; [10]): > 1000 nM
CCN1CCC[C@H]1CNC(=O)c1c(O)c(Cl)cc(Cl)c1OC [S-(−)-Raclopride]	no neuroprotection	–	0	> 1000 nM	0	EC50 (HT-22 cells; [7]): > 1000 nM
Cc1cccc(C(=O)NCN2CCN(c3ccccc3C#N)CC2)c1 [PD168077]	–	–	0	–	–	EC50 (HT-22 cells; [7]): > 1000 nM
Cc1nc2n(c(=O)c1CCN1CCC(c3noc4cc(F)ccc34)CC1)CCCC2 [Risperidone]	–	–	–	–	0	–
O=c1[nH]c2ccccc2n1C1CCN(CCCC(c2ccc(F)cc2)c2ccc(F)cc2)CC1 [Pimozide]	–	–	0	> 1000 nM	–	EC50 (HT-22 cells; Mus musculus, HT-22, read-out: In vitro Protective Potency (EC50 ± SEM, nM)): > 1000 nM
CSc1ccc2c(c1)N(CCC1CCCCN1C)c1ccccc1S2 (centres unmarked) [Thioridazine]	–	–	–	–	0	–
CN(C)CCCN1c2ccccc2Sc2ccc(Cl)cc21 [Chlorpromazine]	–	–	–	> 1000 nM	0	–
Clc1ccc2c(c1)C(N1CCNCC1)=Nc1ccccc1O2 [Amoxapine]	–	–	0	–	–	–
